The values below come from patent publication US20260146045A1, “COMPOSITIONS AND USES THEREOF” (Solve Therapeutics, Inc., priority 2022, published 2026).

For orientation: pEC50 means the EC50 on a negative log10 scale, so that one unit is a factor of ten. High values mean a low EC50, low ones a high EC50.

The experiment deals with SKBR3, a breast cancer cell line. The experiment can be described thus: in vitro cytotoxicity assay (CellTiter-Glo viability). Format: cell-based. The following applies: Homo sapiens, SK-BR-3, SKBR3 cells, 72 hours at 37° C., luminometer. How it is done: The ability of compounds to inhibit cell growth was measured using in vitro cytotoxicity assay.
Cells were cultured in log phase growth and split into 96-well plates. Each cell-line was plated at a slightly different concentration but ranged from 5×10^3 to 50x 10+ cells/well. Cells, in duplicate, were incubated with 3-fold serial dilution of a particular immunoconjugate starting at 3000 or 1000 nanomolar (3000, 1000, 333, 111, 37, 12.3, 4.1, 1.37, 0.46, 0.15 nanomolar) for 72 hours at 37° C. and 5% CO2. After treatment the cells were incubated with an equal volume of CellTiter-Glo® reagent (Promega Inc.) for 15 minutes at room temperature, and viability was determined by a luminometer.

pEC50: −log10 of the molar value.

Molecule `CC[C@@]1(O)C(=O)OCc2c1cc1n(c2=O)Cc2c-1nc1cc(F)ccc1c2CNC(=O)CN` [Compound 7] had a pEC50 of 7.05.

On to `CC[C@@]1(O)C(=O)OCc2c1cc1n(c2=O)Cc2c-1nc1cc(F)ccc1c2CNC(=O)CO` [Compound 8], for which the pEC50 was 8.25.

The molecule `CC[C@@]1(O)C(=O)OCc2c1cc1n(c2=O)Cc2c-1nc1ccc(O)cc1c2CNC(=O)CN` [Compound 13] showed a pEC50 of 5.98.

`CC[C@@]1(O)C(=O)OCc2c1cc1n(c2=O)Cc2c-1nc1ccc(O)cc1c2CNC(=O)CO` [Compound 14]: the pEC50 was 6.29.
